Patent US20220395465A1, “STING AGONIST COMPRISING EXOSOMES COMBINED WITH IL-12 DISPLAYING EXOSOMES FOR TREATING A TUMOUR” (CODIAK BIOSCIENCES, INC., priority 2019, published 2022)

Tested on: MC38 tumor
Experiment: MC38 mouse tumor model, tumor growth, complete responses and rechallenge
Format: in vivo, mice
Details: equivalent IL-12 dose
Method: Potency was assessed in vitro using human PBMCs or murine splenocytes and in vivo using mouse subcutaneous tumor models. Local versus systemic pharmacology was determined with intratumoral injection in mice and subcutaneous injection in monkeys. All studies were benchmarked against recombinant IL-12 (rIL-12).
In addition, exoIL-12 administration led to enhanced intratumoral IFN-gamma AUC by about 4-fold as compared to recombinant IL-12 (FIG. 7B). […] This correlated with dose-dependent increases in tumor antigen-specific CD8+ T cells, which increased nearly 4-fold in exoIL-12 treated mice (FIG. 7E).
Suppression of tumor growth was again observed following MC38 rechallenge (FIG. 7D).

“rIL-12: recombinant IL-12, benchmark in all studies” was tested, and the “complete responses (share of mice)” value was 0%.
